# Where two headings read alike, the source gives them in different places.
# How the values were obtained:
# [1] = 6-Month Oral Toxicity Study in Sprague Dawley Rats; type: in vivo, rat; details: Sprague-Dawley, rat, plasma, oral
# Procedure: In the longer-term studies Sprague-Dawley rats were administered PF-04895162 once daily for 28 days or 6 months at doses up to 100 mg/kg/day. […] The drug was well absorbed into the systemic circulation of male and female rats following oral administration for 6 months.
# Sprague-Dawley rats = assay: 7-Day Oral Toxicity Study in Rats (twice daily dosing, GLP); type: in vivo
# [2] = as above; type: in vivo; details: rat, in vivo, Day 7, 400 mg/kg/day
# [3] = system: liver mitochondrial function; assay: mitochondrial state 3/4 respiration in the presence of glutamate/malate; type: biochemical; details: N = 2
# Source text: […]
# [4] = Phase 1 clinical study in healthy subjects: plasma pharmacokinetics and food effect; type: in vivo, human
# Procedure: A randomized, double‐blind, third‐party open (i.e., subject and Investigator blind, and Sponsor open), placebo‐controlled study was conducted in healthy subjects to investigate the safety, tolerability, and pharmacokinetics of single and multiple oral doses of PF‐04895162 and to characterize the effect of food on the pharmacokinetics of a single oral dose of PF‐04895162. The study was conducted in accordance with the International Conference on Harmonization guideline for Good Clinical Practice and the principles of the Declaration of Helsinki and was approved by the local independent ethics committee. All subjects gave written informed consent prior to participation in the study. The study was planned as a parallel group, dose escalation study in four cohorts of 10 subjects each, however, the study was terminated prematurely and only Cohort 1 was conducted. After an initial screening visit to confirm eligibility, subjects in Cohort 1 (Figure 1) received single oral doses of 300 mg PF‐04895162 in Period 1 (under fasting conditions) and Period 2 (under fed conditions), and then 300 mg BID PF‐04895162 or placebo for 14 days (under fasting conditions) in Period 3 (the final dose was administered on the morning of Day 14). In Period 2, subjects were given a high‐fat breakfast 25 minutes prior to dosing which had to be consumed within 20 minutes. In all periods, subjects were fasted for at least 8 hours prior to morning dosing (except for breakfast in Period 2), and received lunch and dinner approximately 4 and 9‐10 hours after the morning dose, respectively. In Period 3, subjects were randomized so that eight subjects received PF‐04895162 and two subjects received placebo. The single doses in Periods 1 and 2, and the first dose in Period 3 were each separated by 3 days. A follow‐up visit was conducted 7‐14 days after the final dose. The ClinicalTrials.gov identifier was NCT01691274.
# Safety was assessed throughout the study by monitoring adverse events, vital signs (blood pressure, pulse rate, and body temperature), 12‐lead ECGs, and physical examinations. Blood samples for safety laboratory assessments were collected prior to and 24 hours after the first single dose of PF‐04895162 (Day 1 and 2 of Period 1), and in Period 3 on Days 7, 14, and 21 (additional samples were also collected in response to emerging safety data). The Columbia suicide severity rating scale (C‐SSRS) was also conducted at screening or baseline and at the follow‐up visit. Blood samples for pharmacokinetic profiles of PF‐04895162 were collected from predose to 72 hours after each single dose (Periods 1 and 2), and up to 12 and 48 hours after morning dosing on Days 7 and 14, respectively, in Period 3. Additional trough samples were also collected on Days 5, 6, 12, and 13 of Period 3.
# The sample size of 10 subjects per cohort was chosen based on practical considerations and was considered sufficient to provide adequate safety information at each dose level. To assess the effect of food on the pharmacokinetics of PF‐04895162, natural log transformed area under the plasma concentration‐time curve (AUC) from time 0 to the last measured time point (AUClast), AUC from time 0 extrapolated to infinity (AUCinf) and maximum plasma concentration (Cmax) were analyzed using a mixed effects model with treatment (fed or fasted) as a fixed effect and subject as a random effect. Estimates of the adjusted mean differences (Fed ‐ Fasted) and corresponding 90% confidence intervals (CIs) were obtained from the model. The adjusted mean differences and 90% CIs for the differences were exponentiated to provide estimates of the ratio of adjusted geometric means (Fed/Fasted) and 90% CIs for the ratios. No formal hypothesis testing was conducted.
# [5] = 100, 200, and 400 mg/kg/day, 7 days
# [6] = twice daily for 7 days, up to 400 mg/kg/day
# [7] = 300 mg single dose, high-fat breakfast vs fasted
structure (smiles),measurement,setting,value
"O=C(Cc1ccc(F)cc1)Nn1c(C2CC2)nc2cc(F)ccc2c1=O [PF‐04895162, N‐(2‐cyclopropyl‐7‐fluoro‐4‐oxoquinazolin‐3(4H)‐yl)‐2‐(4‐fluorophenyl)ethanamide]",Cmax,"[1]; both sexes, 100 mg/kg/day, studies >1 month in duration, read-out: total Cmax concentrations in the rat (male-female)",6.9 to 15.1 µM
same,Cmax,"[1]; female, Day 1, 100 mg/kg/day, read-out: Total Cmax, female rats",5350 ng/mL
same,Cmax,"[1]; male, Day 1, 100 mg/kg/day, read-out: Total Cmax, male rats",2460 ng/mL
same,Clinical findings and body temperature,Sprague-Dawley rats; [5],test article-induced hypothermic condition
same,hematology parameters,Sprague-Dawley rats; [5],no adverse test article-related effects
same,mortality,Sprague-Dawley rats; [5],All main study animals survived to study termination
same,body weight and food consumption,Sprague-Dawley rats; treated males and females,Decreases in body weight and food consumption
same,ALT,Sprague-Dawley rats; [6],did not reproduce ALT findings
same,liver weight,Sprague-Dawley rats; [6],increased liver weight in female rats
same,Cmax,"[2]; female, read-out: Total Cmax (mean), female rats",10300 ng/mL
same,Cmax,"[2]; male, read-out: Total Cmax (mean), male rats",7920 ng/mL
same,IC50,[3]; read-out: IC50 for inhibition of glutamate/malate respiration,~10 µM
same,IC50,[3]; read-out: IC50 for uncoupling activity,> 100 µM
same,"AUCinf, Ratio (90% Confidence Interval) of Adjusted Means, Fed vs Fasted",[4]; [7],"113.27 (102.99, 124.58) %"
same,"AUClast, Ratio (90% Confidence Interval) of Adjusted Means, Fed vs Fasted",[4]; [7],"116.85 (106.90, 127.73) %"
same,"Cmax, Ratio (90% Confidence Interval) of Adjusted Means, Fed vs Fasted",[4]; [7],"202.92 (178.28, 230.95) %"
same,AUC,"[4]; human, plasma, oral, 300 mg, 300 mg BID, Day 7, subject with the highest ALT values, read-out: AUCtau, Subject 8",93000 ng·h/mL
same,Cmax,"[4]; human, plasma, oral, 300 mg, 300 mg BID, Day 7, subject with the highest ALT values, read-out: Cmax, Subject 8 (converted)",10800 ng/mL
same,AUC,"[4]; human, plasma, oral, 300 mg, Period 1, 300 mg fasted, Day 1 (N = 10), 12 h interval, geometric mean (%CV), read-out: AUCtau",40800 ng·h/mL
same,half-life,"[4]; human, plasma, oral, 300 mg, Period 1, 300 mg fasted, Day 1 (N = 10), arithmetic mean ± SD, read-out: t½, terminal half-life (converted)",7.88 ± 3.2 h
same,Cmax,"[4]; human, plasma, oral, 300 mg, Period 1, 300 mg fasted, Day 1 (N = 10), geometric mean (%CV), read-out: Cmax",4510 ng/mL
same,Tmax,"[4]; human, plasma, oral, 300 mg, Period 1, 300 mg fasted, Day 1 (N = 10), median (range)",5 h
same,Cmax,"[4]; human, plasma, oral, 300 mg, Period 1, 300 mg fasted, Day 1 (N = 10), total concentration, read-out: Cmax",12.7 µM
same,half-life,"[4]; human, plasma, oral, 300 mg, Period 2, 300 mg fed, Day 1 (N = 10), arithmetic mean ± SD, read-out: t½, terminal half-life (converted)",5.21 ± 1.17 h
same,Cmax,"[4]; human, plasma, oral, 300 mg, Period 2, 300 mg fed, Day 1 (N = 10), geometric mean (%CV), read-out: Cmax",9150 ng/mL
same,Tmax,"[4]; human, plasma, oral, 300 mg, Period 2, 300 mg fed, Day 1 (N = 10), median (range)",4 h
same,Cmax,"[4]; human, plasma, oral, 300 mg, Period 2, 300 mg fed, Day 1 (N = 10), total concentration, read-out: Cmax",25.8 µM
same,Cmax at 7 day,"[4]; human, plasma, oral, 300 mg, Period 3, 300 mg BID fasted, Day 7 (N = 7), geometric mean (%CV)",9430 ng/mL
same,AUC,"[4]; human, plasma, oral, 300 mg, Period 3, 300 mg BID fasted, Day 7 (N = 7), geometric mean (%CV), read-out: AUCtau",85200 ng·h/mL
same,Tmax at 7 day,"[4]; human, plasma, oral, 300 mg, Period 3, 300 mg BID fasted, Day 7 (N = 7), median (range)",2 h
same,Cmax at 7 day,"[4]; human, plasma, oral, 300 mg, Period 3, 300 mg BID fasted, Day 7 (N = 7), total concentration",26.5 µM
same,half-life at 14 day,"[4]; human, plasma, oral, 300 mg, Period 3, 300 mg BID fasted, Day 14 (N = 7), arithmetic mean ± SD, read-out: t½, terminal half-life (converted)",8.04 ± 3.29 h
same,Cmax at 14 day,"[4]; human, plasma, oral, 300 mg, Period 3, 300 mg BID fasted, Day 14 (N = 7), geometric mean (%CV)",8380 ng/mL
same,AUC,"[4]; human, plasma, oral, 300 mg, Period 3, 300 mg BID fasted, Day 14 (N = 7), geometric mean (%CV), read-out: AUCtau",71200 ng·h/mL
same,Tmax at 14 day,"[4]; human, plasma, oral, 300 mg, Period 3, 300 mg BID fasted, Day 14 (N = 7), median (range)",2 h
same,Cmax at 14 day,"[4]; human, plasma, oral, 300 mg, Period 3, 300 mg BID fasted, Day 14 (N = 7), total concentration",23.6 µM
same,half-life,"[4]; human, plasma, oral, 300 mg, similar after single and multiple dosing, 300 mg, read-out: Mean terminal half-life (converted)",~8 h

# Reference: publication PMC6370995, “Phase I study of PF‐04895162, a Kv7 channel opener, reveals unexpected hepatotoxicity in healthy subjects, but not rats or monkeys: clinical evidence of disrupted bile acid homeostasis” (Pharmacology Research & Perspectives, 2019)
